Measured values published in patent publication US20050181385A1, “Synthetic lethal screen using RNA interference” (priority 2003, published 2005).
“And” between values parts separate entries of the source, which are not always exact repeats. Equal values may be shown once.

Key:
Assay type in all cases: cell-based, human
HeLa cells = assay: siRNA library screen for sensitization to Cisplatin (Alamar Blue growth)
Experimental: The primary screen with each agent was performed in HeLa cells, which are TP53 deficient. HeLa cells were transfected with siRNA pools, and the drugs were added 4 hrs later. […] The growth of cells +/−drug was assessed at 72 hrs post-transfection.
siRNA transfection was carried out as follows: one day prior to transfection, 50 microliters of a chosen cell line, e.g., cervical cancer HeLa cells (ATCC, Cat. No. CCL-2), grown in DMEM/10% fetal bovine serum (Invitrogen, Carlsbad, Calif.) to approximately 90% confluency were seeded in a 384-well tissue culture plate at 450 cells/well. For each transfection 20 microliters of OptiMEM (Invitrogen) was mixed with 2 microliter of siRNA (Dharmacon, Lafayette, Colo.) from a 10 micromolar stock. For each transfection, a ratio of 20 microliter of OptiMEM was mixed with 1 microliter of Oligofectamine reagent (Invitrogen) and incubated 5 minutes at room temperature. Then 20-microliter OptiMEM/Oligofectamine mixture was dispensed into each well of the 96 well plate with the OptiMEM/siRNA mixture, mixed and incubated 15-20 minutes at room temperature.
The internal environment of the proliferating cell is more reduced than that of non-proliferating cells.

TP53-negative A549 cells = assay: Alamar Blue cell growth, cisplatin after siRNA supertransfection, TP53-negative cells (FIG. 20)
Experimental: A549 cells stably transfected with empty vector (pRS, left panel) or an shRNA targeting TP53 (pRS-TP53, right panel) were supertransfected with siRNAs to luciferase, BRCA1, or BRCA2 prior to treatment with the DNA damaging agent, cisplatin. Cell growth was measured 72 hrs post-transfection using Alamar Blue.
The cell lines used in this example were HeLa cells, TP53-positive A549 cells and TP53-negative A549 cells. The matched pair of TP53 positive and negative cells were generated by stable transfection of short hairpin RNAs (shRNAs) targeting TP53 (monthly highlt highlight, November 2003). […]
After 4 hours, 100 microliter/well of DMEM/10% fetal bovine serum with or without DNA damage agents was added to each well to reach the final concentration of each agents as described above. […] Samples from the 6-well plates were analyzed for cell cycle profiles and samples from 96-well plates were analyzed for cell growth with Alamar Blue assay.
For Alamar Blue assay, the media from the 96-well plates was removed, and 100 uL/well complete media containing 10% (vol/vol) alamarBlue reagent (BioSource International, Inc) and 1/100th volume 1M Hepes buffer tissue culture reagent was added. The plates were then incubated 1-4 hours at 37° C. and fluorescence was measured by exciting at 544 nm and detecting emission at 590 nm with […]ax Gemini-Xs Spectrofluorometer (Molceular Devices). […]

TP53 mRNA [1] = assay: TP53 knockdown by TaqMan, pRS-p53 shRNA in HCT116 cells
Source text: In another specific embodiment, the invention provides a method for determining synthetic lethality between p53 and CHEK1. Stable clones having p53 gene silenced was generated. The pRS-TP53 1026 shRNA plasmid was deconvoluted from a library plasmid pool for TP53 by transforming bacteria with the pool and looking for clones containing only the plasmid of interest. The sequences used are as follows: pRS-p53 1026 19mer sequence: […] (SEQ ID NO:43); primers for sequence specific PCR: Forward: […] (SEQ ID NO:44), Reverse: […] (SEQ ID NO:45). Plasmids were identified by sequence specific PCR, and confirmed by sequencing. Stable p53-clones were generated by transfecting HCT116 cells using FuGENE 6 (Roche) with the pRS-TP53 1026 plasmid. Cells were split into 10 cm dishes plus 1 ug/ml puromycin 48 hours later, and maintained until colonies were evident (5-7 days). Clones were picked into a 96 well plate, maintained in 1 ug/ml puromycin, and tested for knockdown by TaqMan using the TP53 and hGUS Pre-Developed Assay Reagent (Applied Biosystems). To measure transient knockdown by the pRS-TP53 1026 plasmid, HCT116 cells were transfected using Lipofectamine 2000 (Invitrogen), and RNA harvested 24 hours later. TP53 transcript levels were assessed by TaqMan. […]

CHEK1 and TP53 mRNA = assay: Competition between stable TP53 shRNA and CHEK1 siRNA pool, TaqMan (FIG. 4A); details: HCT116 clone A11, siRNA pool 100 nM, 24 hours
Experimental: A pool of three siRNAs targeting CHEK1 was transiently transfected into WT and pRS-p53 stably transfected HCT116 cells (clone A11). CHEK1 and TP53 mRNA levels were measured by Taqman analysis (left and right panels, respectively). […] STK6 and KNSL1 siRNAs were transiently co-transfected into WT SW480 cells and KNSL1 siRNAs were supertransfected into pRS-STK6 stably transfected SW480 cells. STK6 mRNA levels were measured by Taqman analysis. For the left set of bars, STK6 siRNA (10 nM) was used alone or together with one of three different individual KNSL1 siRNAs (10 nM each). […]
To test whether TP53 silencing in HCT116 clone A11 was subject to competition with siRNAs, cells of this clone were supertransfected with a pool of CHEK1-specific siRNAs. […] RNA was harvested 24 hours post transfection and knockdown was assessed by TaqMan analysis using the CHK1 or TP53 and hGUS Pre-Developed Assay Reagent (Applied Biosystems). […] This is in contrast to the observation that two different siRNAs targeting distinct mRNAs compete with each other when transfected together, effectively decreasing the efficacy of one or both of the siRNAs used. pRS and pRS-p53 HCT116 cells were transiently transfected with siRNA pools for ˜800 genes (see Example 3, infra) and measured effects on cellular growth by Alamar Blue assay. […]

TP53 mRNA [2] = assay: TP53 mRNA silencing in A549 cells stably transfected with pRS-p53; details: stable A549 pRS-p53 cells versus pRS cells
Experimental: (§1) Next, supertransfection of the CHEK1 siRNA pool into cells stably expressing TP53 shRNAs was evaluated to determine if it could be used to investigate genetic interactions (SL) between these molecules. Matched cell lines +/−TP53 expression were generated by selecting stable clones of A549 lung cancer cell lines containing either empty pRS vector or pRS-p53. […] Both cell lines were then supertransfected with either control luciferase siRNA (luc, 100 nM) or the CHEK1 siRNA pool (100 nM total; 33 nM each of 3 siRNAs) and their cell cycle profiles examined with or without exposure to the DNA damaging agent, doxorubicin (Dox, FIG. 5). Cell cycle profiles of pRS-p53 cells were not appreciably different from those of pRS cells in the absence of Dox.
as §1, with “molecules. […]” for “molecules.”, “Cell cycle profiles of pRS-p53 cells were not appreciably different from those of pRS cells in the absence of Dox.” left out

[3] = cisplatin, HeLa cell growth, 72 hrs

| Molecule | EC25 (HeLa cells; 400 ng/ml stated to be an <EC25 concentration) | EC10 (HeLa cells; [3]) | EC50 (HeLa cells; [3]) | IC50 (TP53-negative A549 cells; cells transfected with BRCA1 or BRCA2 siRNAs) | IC50 (TP53-negative A549 cells; cells transfected with control siRNA (luciferase)) | TP53 mRNA silencing (TP53 mRNA [1]; stable clones A5 and A11) | TP53 mRNA silencing (TP53 mRNA [1]; transient transfection, 24 hr post transfection) | competitive inhibition of silencing between TP53 shRNA and CHEK1 siRNA pool (CHEK1 and TP53 mRNA) | TP53 mRNA silencing (TP53 mRNA [2]) |
| --- | --- | --- | --- | --- | --- | --- | --- | --- | --- |
| N.N.[Cl][Pt][Cl] [cisplatin, cis-Diaminedichloroplatinum] | > 0.4 µg/mL | ~0.1 µg/mL | ~0.4 µg/mL | ~0.1 nM | ~1 nM |  |  |  |  |
| GACTCCAGTGGTAATCTAC [pRS-p53] |  |  |  |  |  | > 95% | ~80% | does not affect | > 90% and ~90% |
